From patent publication US9029337B2, “Modulation of factor 7 expression” (Isis Pharmaceuticals, Inc., priority 2007, dated 2015)
Strand notation (5' to 3'): a small letter for the sugar, then the base; units joined by * are phosphorothioate-linked, units joined directly phosphodiester-linked; [ ] holds rarer units or linkages, { } end groups; capitals alone tell only the bases. e = 2'-O-(2-methoxyethyl) (MOE); [5mC] = 5-methylcytosine; d = 2'-deoxy (DNA)

test system: human Factor 7 mRNA; experiment: Antisense inhibition of human Factor 7 mRNA in HepB3 cells, 50 nM antisense oligonucleotide, lipofectin; format: cell-based; conditions: gapmers targeted to nucleobases 4868 to 4899 of SEQ ID NO: 1, Table 8
Method in brief: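 Percent inhibition, untreated cells as reference: derived from RNA collected about 24 hours post-transfection of 4,000-cell wells, with the human RTS 2927 primer probe set and adjustment for total RNA content (RIBOGREEN®).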

Substance | % Inhibition of human Factor 7 mRNA levels
416509 (antisense eA*eG*eG*eA*eG*d[5mC]*d[5mC]*d[5mC]*dG*dA*dG*dT*dT*d[5mC]*dT*eG*e[5mC]*eA*eG*eG) [compound 416509] | 60%

same assay, conditions: lipofectin, 50 nM antisense oligonucleotide, approximately 24 hours, Factor 7 mRNA by real-time RT-PCR (RTS 2927), relative to untreated control

Substance | % Inhibition
416490 (antisense eA*e[5mC]*eT*e[5mC]*eA*dG*d[5mC]*dA*dA*dG*dA*dG*dT*dG*d[5mC]*eA*eG*e[5mC]*eT*eT) [compound 416490] | 33%
416491 (antisense eG*eA*eG*eA*eA*dG*dG*dG*dT*dT*dG*d[5mC]*dA*dG*dG*e[5mC]*eA*eG*eG*eA) [compound 416491] | 2%
416492 (antisense eG*eG*eA*eT*e[5mC]*dA*dT*dT*d[5mC]*dT*dG*dG*d[5mC]*d[5mC]*d[5mC]*eT*eG*eA*eG*e[5mC]) [compound 416492] | 13%
416493 (antisense eT*e[5mC]*eT*eT*eG*dG*dG*dT*dG*dT*dG*dG*dA*dT*dG*eT*eA*eA*eA*eT) [compound 416493] | 0%
416494 (antisense e[5mC]*eA*eG*eA*eT*dT*dT*dA*dA*dA*d[5mC]*dT*dG*d[5mC]*dA*eG*eA*eT*eG*eA) [compound 416494] | 0%
416495 (antisense eT*e[5mC]*eT*eA*eG*dA*dA*dT*dT*d[5mC]*d[5mC]*dA*dA*dA*d[5mC]*e[5mC]*e[5mC]*e[5mC]*eT*eA) [compound 416495] | 0%
416496 (antisense e[5mC]*eA*eA*e[5mC]*eA*d[5mC]*dT*dT*d[5mC]*dA*dA*dA*dT*dA*d[5mC]*eG*eA*eT*e[5mC]*eT) [compound 416496] | 0%
416497 (antisense e[5mC]*eG*eT*eG*e[5mC]*dA*dG*dG*dT*dG*dT*dT*dA*dA*dG*eG*eT*eG*eT*eG) [compound 416497] | 0%
416498 (antisense eG*eG*e[5mC]*e[5mC]*eA*dG*dT*dG*dG*d[5mC]*d[5mC]*dA*dT*dG*d[5mC]*eA*eT*e[5mC]*e[5mC]*e[5mC]) [compound 416498] | 5%
416499 (antisense eG*eA*eG*eA*eG*d[5mC]*dT*dG*d[5mC]*dA*d[5mC]*d[5mC]*dT*dG*dG*e[5mC]*e[5mC]*eG*eG*e[5mC]) [compound 416499] | 7%
416500 (antisense e[5mC]*eT*eG*eA*eA*d[5mC]*dA*d[5mC]*d[5mC]*d[5mC]*d[5mC]*dA*dG*d[5mC]*dT*eG*eA*eG*eA*eG) [compound 416500] | 1%
416501 (antisense e[5mC]*eT*eG*e[5mC]*e[5mC]*d[5mC]*dT*dT*d[5mC]*d[5mC]*dA*d[5mC]*d[5mC]*dA*dA*eG*eT*eT*eT*eA) [compound 416501] | 18%
416502 (antisense eG*eT*eT*e[5mC]*eT*dT*dT*dG*dA*dA*dA*dA*dA*dT*dA*eA*eT*e[5mC]*e[5mC]*e[5mC]) [compound 416502] | 22%
416503 (antisense eT*eA*eG*e[5mC]*e[5mC]*dA*d[5mC]*d[5mC]*d[5mC]*d[5mC]*dG*d[5mC]*dG*dG*dG*e[5mC]*eT*eG*eG*e[5mC]) [compound 416503] | 0%
416504 (antisense eT*e[5mC]*eA*eG*eA*dA*dA*dA*dG*d[5mC]*dT*d[5mC]*dT*d[5mC]*dA*eA*eG*eA*eA*e[5mC]) [compound 416504] | 0%
416505 (antisense eG*e[5mC]*eA*eG*eA*dT*dT*dT*dG*d[5mC]*dA*dT*d[5mC]*dA*dG*eA*eA*eA*eA*eG) [compound 416505] | 45%
416506 (antisense e[5mC]*eT*eT*eT*eA*dA*dA*dA*dT*d[5mC]*dA*dG*dT*dT*dT*e[5mC]*eA*e[5mC]*eA*e[5mC]) [compound 416506] | 18%
416509 (antisense eA*eG*eG*eA*eG*d[5mC]*d[5mC]*d[5mC]*dG*dA*dG*dT*dT*d[5mC]*dT*eG*e[5mC]*eA*eG*eG) [compound 416509] | 56%
416510 (antisense eG*eA*e[5mC]*eG*eA*dG*dG*d[5mC]*d[5mC]*dT*d[5mC]*dA*dG*dG*dT*eG*eG*eA*e[5mC]*eG) [compound 416510] | 30%
416511 (antisense eT*eT*eG*e[5mC]*eT*dG*dG*dG*dA*dG*dG*dA*d[5mC]*dG*dA*eG*eG*e[5mC]*e[5mC]*eT) [compound 416511] | 35%
416512 (antisense eG*eA*e[5mC]*eG*eA*d[5mC]*d[5mC]*dT*dT*dT*dG*d[5mC]*dT*dG*dG*eG*eA*eG*eG*eA) [compound 416512] | 43%
416513 (antisense e[5mC]*eT*eG*eA*eT*dG*dT*dG*dA*dA*dA*dA*d[5mC]*d[5mC]*dG*eG*e[5mC]*eA*eT*eG) [compound 416513] | 37%
416514 (antisense eG*eT*eA*eT*eT*dT*dT*d[5mC]*dT*dG*dA*dT*dG*dT*dG*eA*eA*eA*eA*e[5mC]) [compound 416514] | 8%
416515 (antisense eT*eA*eG*eG*e[5mC]*dA*dT*dG*dA*d[5mC]*d[5mC]*dA*dT*d[5mC]*d[5mC]*eT*e[5mC]*eA*eA*eT) [compound 416515] | 39%

Substance | % Inhibition
416516 (antisense eG*eT*eG*eA*eG*dA*dA*dT*dA*d[5mC]*dA*dA*d[5mC]*dA*dG*eA*eT*eG*eA*eG) [compound 416516] | 24%
416517 (antisense eG*eG*eG*eT*eG*d[5mC]*dA*dG*dT*dA*dG*d[5mC]*dA*dG*dA*eT*eG*e[5mC]*eA*eA) [compound 416517] | 23%
416518 (antisense eG*eG*eG*eT*eG*dA*d[5mC]*d[5mC]*dA*d[5mC]*dA*d[5mC]*dA*dT*dT*eT*e[5mC]*e[5mC]*eT*eG) [compound 416518] | 55%
416519 (antisense eA*eA*eA*eT*eA*dT*dG*dG*dG*dA*d[5mC]*d[5mC]*d[5mC]*dA*dA*eA*eG*eT*eG*eG) [compound 416519] | 9%
416520 (antisense e[5mC]*e[5mC]*e[5mC]*eT*e[5mC]*dT*dG*d[5mC]*dA*dA*dA*dT*dA*dT*dG*eG*eG*eA*e[5mC]*e[5mC]) [compound 416520] | 14%
416521 (antisense e[5mC]*eA*e[5mC]*e[5mC]*e[5mC]*d[5mC]*dA*d[5mC]*d[5mC]*dA*dG*dG*dT*dT*dG*eT*eG*e[5mC]*eA*e[5mC]) [compound 416521] | 36%
416522 (antisense eG*eG*e[5mC]*eT*eG*dA*dG*dA*dA*dT*dT*dG*d[5mC]*d[5mC]*d[5mC]*eA*eG*eG*eG*e[5mC]) [compound 416522] | 25%
416523 (antisense eT*e[5mC]*eT*e[5mC]*eG*dA*dG*dG*dG*d[5mC]*dT*dG*dA*dG*dA*eA*eT*eT*eG*e[5mC]) [compound 416523] | 18%
416524 (antisense eT*eA*eA*eT*eT*dT*dA*dA*dT*dA*dT*dT*d[5mC]*dA*dG*eA*eT*eG*eG*eT) [compound 416524] | 0%
416525 (antisense eT*eA*eT*eG*eA*dG*dT*d[5mC]*d[5mC]*dT*dT*d[5mC]*dT*dA*dG*eT*eG*eA*eA*eT) [compound 416525] | 5%
416526 (antisense eT*eG*eT*e[5mC]*e[5mC]*dA*d[5mC]*dA*dT*dG*dA*d[5mC]*d[5mC]*d[5mC]*d[5mC]*eA*e[5mC]*eA*eG*eG) [compound 416526] | 19%
416527 (antisense eG*eA*eG*e[5mC]*eT*dT*d[5mC]*d[5mC]*d[5mC]*dA*dA*dG*dT*dT*dG*eG*e[5mC]*eA*eG*eT) [compound 416527] | 49%
416528 (antisense eT*eG*eA*eT*eA*dA*dA*dA*d[5mC]*d[5mC]*dT*d[5mC]*dT*dG*dG*eA*e[5mC]*eA*e[5mC]*e[5mC]) [compound 416528] | 10%
416529 (antisense eG*eG*eG*e[5mC]*eT*dG*dA*dG*dA*d[5mC]*dT*dG*dA*dG*dG*eT*e[5mC]*eA*eG*e[5mC]) [compound 416529] | 18%
416530 (antisense eA*eG*eG*eG*eT*dA*dG*d[5mC]*d[5mC]*dT*dT*dT*dG*d[5mC]*d[5mC]*eT*eT*eG*eG*e[5mC]) [compound 416530] | 35%
416531 (antisense eA*eG*eA*eT*eG*dA*d[5mC]*d[5mC]*dA*dG*d[5mC]*dA*dG*dG*dA*eA*eG*e[5mC]*e[5mC]*eT) [compound 416531] | 19%
416532 (antisense eG*eG*eA*e[5mC]*e[5mC]*d[5mC]*dA*dG*dA*dT*dG*dA*d[5mC]*d[5mC]*dA*eG*e[5mC]*eA*eG*eG) [compound 416532] | 12%
416533 (antisense eG*e[5mC]*eA*eT*eT*d[5mC]*dT*dG*dG*dA*d[5mC]*d[5mC]*d[5mC]*dA*dG*eA*eT*eG*eA*e[5mC]) [compound 416533] | 41%
416534 (antisense eA*eT*eG*e[5mC]*eA*d[5mC]*dA*d[5mC]*d[5mC]*dA*dG*dG*dG*d[5mC]*dT*eG*e[5mC]*eT*eG*eG) [compound 416534] | 32%
416535 (antisense eG*e[5mC]*eA*eG*eG*dA*dT*dG*d[5mC]*dA*d[5mC]*dA*d[5mC]*d[5mC]*dA*eG*eG*eG*e[5mC]*eT) [compound 416535] | 47%
416536 (antisense e[5mC]*eG*eG*eG*eA*dA*dG*dG*d[5mC]*d[5mC]*dT*dG*d[5mC]*d[5mC]*d[5mC]*eT*eG*e[5mC]*eA*eG) [compound 416536] | 23%
416537 (antisense eT*eG*eA*e[5mC]*e[5mC]*dA*d[5mC]*dT*d[5mC]*dT*dT*d[5mC]*d[5mC]*dG*dA*eG*e[5mC]*eA*eG*e[5mC]) [compound 416537] | 55%
416538 (antisense e[5mC]*eG*eT*eG*eG*dA*d[5mC]*dT*dG*dA*dT*d[5mC]*d[5mC]*dA*dA*eA*eG*eG*eA*e[5mC]) [compound 416538] | 46%
416539 (antisense eG*eA*e[5mC]*eA*eG*dA*dG*d[5mC]*d[5mC]*dT*dG*dA*dG*d[5mC]*dT*eT*eG*eG*e[5mC]*eA) [compound 416539] | 53%
